Reference: ChEMBL document CHEMBL5150064 (J Med Chem, 2022)
≈ marks a conversion by molar mass, not a printed value.

How the values were obtained:
Homo sapiens [1] = organism: Homo sapiens; assay: Selectivity ratio of EC50 for PI3Kalpha H1047R mutant in human HCC1954 cells assessed as reduction in PRAS40 phosphorylation to EC50 for wild type PI3Kalpha in human HDQ-P1 cells assessed as reduction in PRAS40 phosphorylation; format: cell-based
[2] = target: Phosphatidylinositol 4,5-bisphosphate 3-kinase catalytic subunit alpha isoform (Homo sapiens, UniProt P42336, H1047R)
[3] = target: T1, Phosphatidylinositol 4,5-bisphosphate 3-kinase catalytic subunit alpha isoform (Homo sapiens, UniProt P42336); assay: Inhibition of PI3Kalpha in human HDQ-P1 cells assessed as reduction in PRAS40 phosphorylation after 24 hrs by electrochemiluminescent assay; format: cell-based
[4] = Kinetic solubility of the compound at pH 7.4; format: physicochemical; conditions: buffer, read-out: Kinetic_solubility
[5] = Oral bioavailability in Sprague-Dawley rat plasma at 5 mg/kg measured upto 8 hrs by LC-MS/MS method; format: ADME, organism-based
[6] = Apparent permeability across apical to basolateral side in MDCK cells at 10 uM measured upto 180 mins by LC-MS/MS method; format: ADME, cell-based, Canis lupus familiaris; conditions: dog
Homo sapiens [7] = organism: Homo sapiens; assay: Selectivity ratio of Ki for PI3Kdelta (unknown origin) to Ki for PI3Kalpha (unknown origin)
[8] = Clearance in Sprague-Dawley rat plasma at 1 mg/kg, iv measured upto 8 hrs by LC-MS/MS analysis; format: ADME, organism-based
[9] = target: T1, Phosphatidylinositol 4,5-bisphosphate 3-kinase catalytic subunit alpha isoform; assay: Inhibition of PI3Kalpha (unknown origin) using PIP2:3PS as substrate in presence of ATP measured after 120 mins by ADP-Glo assay
[10] = Lipophilicity, logD of compound in 1-Octanol/PBS at pH 7.4 by LC-MS/MS method; format: physicochemical
[11] = Oral bioavailability in Sprague-Dawley rat plasma at 3 mg/kg measured upto 8 hrs by LC-MS/MS method; format: ADME, organism-based

T1 sequence (P42336 whole entry, canonical isoform): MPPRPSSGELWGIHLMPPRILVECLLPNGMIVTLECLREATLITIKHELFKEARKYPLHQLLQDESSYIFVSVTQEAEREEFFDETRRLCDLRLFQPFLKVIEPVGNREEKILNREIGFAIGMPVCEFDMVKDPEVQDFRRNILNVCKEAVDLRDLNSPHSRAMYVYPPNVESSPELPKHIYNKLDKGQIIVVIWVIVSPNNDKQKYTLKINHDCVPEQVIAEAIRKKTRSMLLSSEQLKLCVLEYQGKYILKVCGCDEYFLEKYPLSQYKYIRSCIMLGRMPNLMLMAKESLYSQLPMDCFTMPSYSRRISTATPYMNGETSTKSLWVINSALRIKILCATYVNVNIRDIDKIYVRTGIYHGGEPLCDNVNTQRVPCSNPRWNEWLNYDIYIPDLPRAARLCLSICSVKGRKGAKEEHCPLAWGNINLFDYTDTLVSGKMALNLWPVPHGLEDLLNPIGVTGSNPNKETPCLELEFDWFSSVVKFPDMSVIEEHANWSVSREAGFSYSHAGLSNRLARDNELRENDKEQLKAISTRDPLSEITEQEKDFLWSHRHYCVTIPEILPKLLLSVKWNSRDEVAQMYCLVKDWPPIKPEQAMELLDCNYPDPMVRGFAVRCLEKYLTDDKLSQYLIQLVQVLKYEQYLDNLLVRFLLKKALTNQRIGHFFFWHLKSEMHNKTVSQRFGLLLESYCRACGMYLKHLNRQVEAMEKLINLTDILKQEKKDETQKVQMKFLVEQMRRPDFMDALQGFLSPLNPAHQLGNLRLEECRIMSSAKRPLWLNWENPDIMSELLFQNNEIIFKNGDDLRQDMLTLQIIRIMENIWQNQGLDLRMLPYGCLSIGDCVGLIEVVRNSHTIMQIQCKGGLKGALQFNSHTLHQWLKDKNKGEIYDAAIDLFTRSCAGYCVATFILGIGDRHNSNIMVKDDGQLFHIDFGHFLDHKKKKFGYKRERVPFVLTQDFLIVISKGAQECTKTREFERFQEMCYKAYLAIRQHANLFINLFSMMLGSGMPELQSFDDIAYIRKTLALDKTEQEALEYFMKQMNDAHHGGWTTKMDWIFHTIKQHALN
Phosphatidylinositol 4,5-bisphosphate 3-kinase catalytic subunit alpha isoform (Homo sapiens, UniProt P42336, H1047R), sequence (P42336 whole entry H1047R, canonical isoform): as the sequence (P42336 whole entry, canonical isoform) above, with H1047R counted along it

| EC50 [2] [µM] | EC50 [3] [µM] | solubility kinetic [4] [µM] | bioavailability [5] [%] | Papp A→B at 3 h, 10 µM [6] [nm/s] | Ratio Ki (Homo sapiens [7]) | clearance [8] [L/h/kg] | Ki [9] [µM] | logD [10] | bioavailability [11] [%] | Compound | Ratio EC50 (Homo sapiens [1]) |
| --- | --- | --- | --- | --- | --- | --- | --- | --- | --- | --- | --- |
| 0.063 | 0.327 | 143 (≈ 56.8 µg/mL) | 9 | 3 | 13 | 1.62 | 0.000355 | 0.4 | – | NC(=O)[C@@H]1CCCN1c1ccc2c(c1)OCCn1cc(N3CC[C@H](O)C3=O)nc1-2 | 5.2 |
| 0.052 | – | – | – | 11 | 285 | 5.64 | 0.0001 | 1.2 | 98 | NC(=O)[C@@H](Nc1ccc2c(c1)OCCn1cc(N3C(=O)OC[C@H]3C(F)(F)F)nc1-2)C1CC1 | 1.1 |
